Assay [1] deals with T1, farnesoid X receptor (FXR) (Homo sapiens, UniProt Q96RI1).
T1 construct: gene NR1H4; human FXR protein (His Tag; Cat: 17624-H07E)
T1 sequence (Q96RI1 1-486): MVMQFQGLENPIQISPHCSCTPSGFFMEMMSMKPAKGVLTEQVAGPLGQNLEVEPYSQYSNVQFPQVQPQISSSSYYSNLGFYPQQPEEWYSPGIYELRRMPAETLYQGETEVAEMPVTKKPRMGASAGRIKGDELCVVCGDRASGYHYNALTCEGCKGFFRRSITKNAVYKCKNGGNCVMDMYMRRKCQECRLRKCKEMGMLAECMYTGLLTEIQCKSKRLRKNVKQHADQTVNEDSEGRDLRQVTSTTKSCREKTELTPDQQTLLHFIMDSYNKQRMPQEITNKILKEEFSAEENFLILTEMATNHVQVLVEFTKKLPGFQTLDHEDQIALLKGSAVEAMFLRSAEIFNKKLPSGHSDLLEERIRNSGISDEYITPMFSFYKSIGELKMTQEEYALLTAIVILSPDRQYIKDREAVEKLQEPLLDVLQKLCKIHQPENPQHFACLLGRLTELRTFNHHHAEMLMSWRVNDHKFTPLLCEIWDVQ
The experiment in a line: retention of standard on immobilized-FXR affinity column ([…]D biochromatography). Type of assay: binding.

The target in assay [2] is T1, farnesoid X receptor (FXR). The experiment in a line: SPR (Biacore T200); also frontal affinity chromatography KD […]. The format is binding. (Surface plasmon resonance follows binding to a sensor surface in real time, without labels.)

Regarding `O=C1c2cccc(O)c2C(=O)c2c(O)cc(CO)cc21` [aloe-emodin], in assay [1], the “retention of standard on immobilized-FXR affinity column (2D biochromatography)” value was “emodin, physcion, aloe-emodin, and TSG exhibited distinct retentions, thereby confirming their strong binding affinities for FXR”.

A word on the Kd: it is the constant that tells how readily two partners part at equilibrium. High values mean a looser complex, low ones a tighter complex. Compound `COc1cc(O)c2c(c1)C(=O)c1cc(C)cc(O)c1C2=O` [physcion] showed a Kd in assay [2] of 30.3 µM. In other words, the double-digit micromolar range.

The values above are taken from PMC12757379 (Frontiers in Pharmacology, 2025).
